The test system of the assay is CEM cells HIV-1 protection, formazan growth assay. As to the kind of experiment: NCI AIDS Antiviral Assay. The conditions noted are these: for IC50: measured here: growth of uninfected CEM cells. In outline:
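Steps: treat uninfected and HIV-1-infected human CEM cells at five drug levels; quantify growth by soluble formazan; retest any compound reaching 50% protection; classify actives from the retest.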

76 compounds from PubChem BioAssay AID179 (DTP/NCI, 2004) can be followed below.

One may read the EC50 as the midpoint of the concentration-response curve. For orientation: IC50 means the concentration needed to halve the response being measured. High values mean weaker potency in that assay, low ones greater potency in that assay.

Values joined by “and” are separate entries in the source; they are usually repeats but may differ in a detail not shown here. Identical values can stand only once. Active and inactive are the calls of the source.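 The calls were made as follows: active = compounds giving half or more protection of infected cells from virus-caused growth loss, again on retest; inactive = the rest.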

On to `Cc1ccc(C)n1-n1c(Cc2ccccc2)n[nH]c1=O`, for which the EC50 is above 200 µM and the IC50 is 83.2 µM.
Take `CC(=O)Oc1cccc2c(/C=N/NC(N)=S)ncc(C)c12`: the EC50 is above 200 µM and the IC50 came out at 1.23 µM.
`C/C(=N\NC(N)=S)c1cn(C2OC(CO)C(O)C2O)c(=O)[nH]c1=O` (configuration not stated): the outcome was inactive.
On to `CN1c2ccccc2C(=O)N2C(=O)CCC21C` (configuration not stated), for which the EC50 was above 200 µM and the IC50 is above 200 µM.
Turning to `Cn1cc2ccccc2c1-c1nc(F)nc(Nc2ccc(N)cc2)n1`, the EC50 is above 15.5 µM and the IC50 came out at 7.94 µM.
As for `[N-]=[N+]=Nc1cc(=O)[nH]c2ccccc12`, the EC50 is above 200 µM and the IC50 was above 200 µM.
For `COc1nc2nccnc2c(=O)n1C`, the EC50 was above 200 µM and the IC50 is above 200 µM.
Regarding `CC12c3ccccc3C(C)(c3c1ccc1ccccc31)C1C(=O)OC(=O)C12` (configuration not stated), the EC50 was above 38.9 µM and the IC50 came out at 26.9 µM.
Taken in the same sequence, the figures for `CCOC(=O)c1c(N)sc(C)c1C` were above 200 µM and 117 µM.
Turning to `CC1(C)C2C3CCC2C2C[S+]1CC23`, the EC50 was above 162 µM and the IC50 amounted to 107 µM.
`O=C(/C=C/c1ccccc1)Oc1cccc(Br)c1`: the EC50 was above 200 µM and the IC50 came to 17.8 µM.
As for `O=C(Nc1ccc(Cl)c(Cl)c1)n1ncc2ccc([N+](=O)[O-])cc21`, the EC50 is above 200 µM and the IC50 was determined as 170 µM.
On to `O=C(C(Cl)=C(N1CCOCC1)N1CCOCC1)C(Cl)Cl`, for which the EC50 is above 200 µM and the IC50 amounted to 112 µM.
The matching figures for `CCC1(CC)SCc2nc3ccccc3n21`: above 200 µM and 63.1 µM.
As to `COC1CC(C)([N+](=O)[O-])C(O)C(C)O1` (configuration not stated), the EC50 was above 200 µM and the IC50 is above 200 µM.
As to `CC1(C)OC2[C@@H](CO[C@@]3([C@@H](O)CCO)OC(C)(C)O[C@@H]23)O1` (some centres not stated), the EC50 is above 200 µM and the IC50 is above 200 µM.
For the compound `COC(=O)c1nsc(OC)c1Cl`, the EC50 was above 200 µM and the concentration for half-maximal inhibition (IC50) was above 200 µM.
As for `CSc1nc(C)cc(Nc2ccc(O)c(CN3CCCCC3)c2)n1`, the EC50 is above 155 µM and the IC50 worked out at 64.6 µM.
Consider `CN1C(=O)C(C)(C)NS1(=O)=O`, for which the result was inactive.
For the compound `Cc1cscc(C)c1=S`, the EC50 was above 195 µM and the IC50 was above 195 µM.
Regarding `CC(O)CN1C(=O)C2C3C=CC(C3)C2C1=O` (configuration not stated), the EC50 is above 200 µM and the IC50 was above 200 µM.
Consider `CCOC(=O)c1sc2nc(SC)nc3c2c1NCN3C`, for which the EC50 is above 200 µM and the IC50 is above 200 µM.
Turning to `COc1ccc(C(c2ccc3cccnc3c2O)c2ccc3cccnc3c2O)cc1`, the outcome was inactive.
For `c1ccc(-c2csc3[nH]c4ccccc4[n+]23)cc1`, the outcome was inactive.
In the case of `CCOC(=O)c1c(Br)c(-c2ccc(OC)cc2)c(Br)n1C`, the EC50 was above 200 µM and the IC50 is 12.6 µM.
As to `Cc1nc2nn(Cc3ccccc3)cc2c(=O)o1`, the EC50 was above 1020 µM and the IC50 was 57.5 µM.
As for `N/N=C(/Cc1nc2ccc(C(=O)c3ccccc3)cc2[nH]c1=O)C(=O)Nc1ccc([N+](=O)[O-])cc1[N+](=O)[O-]`, the EC50 was above 50.1 µM and the IC50 is above 50.1 µM.
In the case of `C/C=C(/C)C(=O)O[C@@H]1c2c(C)coc2C[C@H]2CC[C@H](O)[C@H](C)[C@]21C`, the EC50 is above 200 µM and the IC50 is 58.9 µM.
As to `N#CCCN(C(=O)Nc1ccc(NC(=O)N(CCC#N)c2ccccc2)cc1)c1ccccc1`, the EC50 is above 200 µM and the IC50 was above 200 µM.
For the compound `NC1=C(Br)C(=O)c2ncccc2C1=O`, the outcome was inactive.
Take `CN(C)CCNC(=O)c1cccc(C(C)(C)C)c1[N+](=O)[O-]`: the EC50 is above 200 µM and the IC50 amounted to 135 µM.
Taken in the same sequence, the figures for `Cc1nc(Nc2ccccc2)sc1C(=O)NNc1ccc([N+](=O)[O-])cc1[N+](=O)[O-]` were above 63.1 µM and 38 µM.
With `COc1ccc(/C=C2/SC(c3c(O)ccc4ccccc34)N(NC(=O)CCCCCCCCC(=O)NN3C(=O)/C(=C\c4ccc(OC)c(OC)c4)SC3c3c(O)ccc4ccccc34)C2=O)cc1OC` (configuration not stated), the EC50 was above 200 µM and the IC50 came out at 8.51 µM.
The matching figures for `CC(=O)c1c(-c2ccco2)c(C#N)c(=S)n(C2OC(CO)C(O)C(O)C2O)c1-c1ccccc1` (configuration not stated): above 200 µM and 75.9 µM.
`O=C1NC(=O)C(=Cc2ccc(-c3ccccc3)cc2)C(=O)N1`: the EC50 is above 24.5 µM and the IC50 is above 24.5 µM.
Regarding `OC1c2ccccc2-c2nc3cccccc-3c21` (configuration not stated), the EC50 was above 155 µM and the IC50 is 24 µM.
Regarding `CN=C(Nn1cnnc1)OC`, the EC50 was above 200 µM and the IC50 is above 200 µM.
For `COCOc1ccc(C(=O)Oc2cccc3c2OC(C)(C)O3)c(OCOC)c1`, the EC50 was above 200 µM and the IC50 worked out at 35.5 µM.
As for `CCOC(=O)/C(C#N)=C/c1ccc(Cl)cc1`, the EC50 is above 110 µM and the IC50 was above 110 µM.
Turning to `Cc1cc(=O)oc2c(C3=NN(C=O)C(c4ccccc4)C3)c(O)ccc12` (configuration not stated), the outcome was inactive.
In the case of `N#C/C(=C\c1cccc(C#N)c1)C(=O)c1ccccc1`, the EC50 was above 115 µM and the IC50 is 15.8 µM.
The matching figures for `O=C(NC1C(=O)NC(CCc2ccccc2)NC1=O)OCc1ccccc1` (configuration not stated): above 200 µM and above 200 µM.
On to `O=C(Cn1c2ccc(Br)cc2c2nc3ccccc3nc21)Nc1ccccc1`, for which the EC50 is above 100 µM and the IC50 is above 100 µM.
On to `Oc1ccc(-c2cc(-c3cc(-c4ccc(O)cc4)no3)on2)cc1`, for which the EC50 is above 200 µM and the IC50 came out at 6.31 µM.
Regarding `COc1ccc(OC)c(C(Nc2ccc3cn[nH]c3c2)P(=O)(c2ccccc2)c2ccccc2)c1` (configuration not stated), the outcome was inactive.
With `O=C1C=CC2(C=C1)CCC(=O)O2`, the EC50 is 2.95 µM and the IC50 is 158 µM.
Take `COC(=O)C1CCC[C@H]2C(CO)=C(C)C(=O)[C@@H]12` (some centres not stated): the EC50 is 182 µM and the IC50 was above 200 µM.
For the compound `CC1OC(n2ncc(=O)[nH]c2=O)C=CC1=O` (configuration not stated), the EC50 was above 1120 µM; the IC50 is 10 µM and 6.92 µM.
`Nc1nc(N)c2cc(-c3ccccc3)cnc2n1`: the EC50 is above 200 µM and the IC50 turned out to be 15.8 µM.
Turning to `CNc1nc(SC)n(C)c(=O)c1N=O`, the outcome was inactive.
With `c1ccc(C[n+]2ccc3c(c2)CCCC3)cc1`, the EC50 is above 200 µM and the IC50 is 40.7 µM.
As for `N#CCCN(CCC#N)c1ccc(/C=C2\SC(=S)NC2=O)cc1`, the EC50 was above 200 µM and the IC50 is above 200 µM.
`N#Cc1c(Nc2nc3ccccc3s2)c2ccccc2n2c1nc1ccccc12`: the EC50 was above 200 µM and the IC50 was above 200 µM.
Take `CN(C)/N=C(/c1nc2ccc(Cl)cc2[nH]c1=O)C(O)c1ccc(C(O)/C(=N\N(C)C)c2nc3ccc(Cl)cc3[nH]c2=O)cc1` (configuration not stated): the EC50 is above 389 µM and the IC50 came out at 24 µM.
With `O=c1c2ccccc2nc(-c2ccccc2Cl)n1NC1OC(CO)C(O)C(O)C1O` (configuration not stated), the result was inactive.
Take `O=C1C=C2CC3=CC(=O)C=C(CC4=CC(=O)C=C(CC5=CC(=O)C=C(CC(=C1)C2=O)C5=O)C4=O)C3=O`: the EC50 was above 53.7 µM and the IC50 came to 0.912 µM.
In the case of `CC(=O)OC1CC2CCC1(C)C2(C)C` (configuration not stated), the EC50 is above 200 µM and the IC50 was above 200 µM.
Consider `CCOC(=O)C(=Cc1cccc([N+](=O)[O-])c1)C(=O)OCC`, for which the EC50 is above 89.1 µM and the IC50 was found to be 8.91 µM.
For `NS(=O)(=O)c1nnc(NC(=O)/C=C/C(=O)O)s1`, the EC50 is above 200 µM and the IC50 was above 200 µM.
In the case of `Cn1cc2c(c1-c1ccccc1)[n+](=O)c1ccccc1n2[O-]`, the EC50 is 5.13 µM and the IC50 turned out to be 32.4 µM.
Take `Nc1cc2nc3ccccc3sc-2cc1=O`: the EC50 came out at 3.39 µM and the IC50 turned out to be 60.3 µM.
For the compound `COC(=O)C12C3C4C1C1C2C3C41C(=O)OC(C)(C)C` (configuration not stated), the EC50 was above 257 µM and the IC50 was above 257 µM.
For `CCCCC(C(=O)C(=O)Nc1ccccc1CC)C(=O)C(C)C` (configuration not stated), the outcome was inactive.
With `COc1ccccc1Nc1nc2c([nH]1)c(=O)n(C)c(=O)n2C`, the EC50 is above 200 µM and the IC50 was above 200 µM.
On to `CC(C)=CCC[C@@H](C)c1c2[nH]c3ccccc3sc-2c(C)c(=O)c1=O`, for which the EC50 is above 200 µM and the IC50 is 4.27 µM.
On to `O=C(NCc1cccnc1)C1COc2cc(-c3cc(=O)c4ccccc4o3)ccc2O1` (configuration not stated), for which the result was inactive.
As for `CC(C)(C)COc1ccc2c(c1)-c1nc-2nc2[nH]c(nc3nc(nc4[nH]c(n1)c1ccc(OCC(C)(C)C)cc41)-c1cc(OCC(C)(C)C)ccc1-3)c1ccc(OCC(C)(C)C)cc21`, the EC50 was above 8.32 µM and the IC50 was above 8.32 µM.
Consider `CSc1nc(C)c(Br)c(=O)n1C1OC(COC(C)=O)C(OC(C)=O)C(OC(C)=O)C1OC(C)=O` (configuration not stated), for which the EC50 was above 200 µM and the IC50 is above 200 µM.
With `Cc1ccc(-n2nc(C(OC3OC(CO)C(O)C(O)C3O)C(O)CO)c3nc4cc(C)c(C)cc4nc32)cc1` (configuration not stated), the result was inactive.
For `NC(=O)C(=CN1C(=O)CC(=O)NC1=S)C(N)=O`, the EC50 was above 200 µM and the IC50 is above 200 µM.
Regarding `CC1=C(C(=O)Nc2ccccc2C)C(c2ccccc2C)C(C(=O)Nc2ccccc2C)=C(C)N1`, the EC50 was above 15.5 µM and the IC50 was above 15.5 µM.
`COC(=O)C12C(=O)CC3CCC1C32C(=O)OC` (configuration not stated): the outcome was inactive.
Regarding `CC1(O)C=CC2CCC1C2O` (configuration not stated), the EC50 is above 1620 µM and the IC50 was above 1620 µM.
Turning to `O=C(c1cccs1)N1CCc2ccccc2C1`, the EC50 is above 162 µM and the IC50 was determined as 107 µM.
As to `O=C1c2cc(O)cc(O)c2C(=O)c2c(O)cc(CO)cc21`, the result was inactive.
With `CC(C)C12NC(=O)NC(=O)N1CCS2` (configuration not stated), the result was inactive.
